Data set [1] is described as follows: Fluorescence response of probes to Na2S2 (H2S2 equivalent) in PBS buffer with CTAB. The following applies: probe 5.0 μM, Na2S2 25 μM, 50 mM PBS pH 7.4, 1 mM CTAB, rt. The procedure: The stock solution of SSP1 (1 mM) and SSP2 (1 mM) were prepared in CH3CN, respectively. The solutions of various testing species were prepared from Cysteine (Cys), GSH, Homocysteine (Hcy), Glutathione disulfide (GSSG), Na2S.9H2O, Na2S2O3, Na2SO3, Na2SO4, Na2S2 in 50 mM PBS buffer. The stock solution of Cetrimonium bromide (CTAB, 100 mM) and S8 (10 mM) were prepared in EtOH, respectively. The stock solution of Cys-polysulfide (10 mM) was prepared in CH3CN. All the test solution need to be freshly prepared.
Unless otherwise noted, all the measurements were carried out for 10 min at 25° C. in 50 mM PBS buffer (pH 7.4) with 1 mM CTAB according to the following procedure. In a test tube, 3.5 mL of 50 mM PBS buffer (pH 7.4) and 40 μL of the stock solution of CTAB were mixed, and then added 20 μL of the stock solution of SSP1 or SSP2. The resulting solution was mixed well, followed by addition of a requisite volume of testing species sample solution. The final volume of the reaction solution was adjusted to 4 mL with 50 mM PBS buffer (pH 7.4). After mixing and then standing for 10 min at room temperature, a 4-mL portion of the reaction solution was transferred into a 1-cm quartz cell to measure fluorescence with λex=380 nm (for SSP1) or 482 nm (SSP2). In the meantime, a blank solution containing no testing species sample was prepared and measured under the same conditions for comparison. […]

Data set [2] is described as follows: Selectivity: fluorescence response to sulfane sulfur compounds. The following applies: sulfane sulfurs at 25 μM (H2S2, Cys-polysulfide, S8), probe 5.0 μM, 10 min, PBS pH 7.4, 1 mM CTAB. The procedure:
FIGS. 5A-B Fluorescence enhancement (F/F0) of 5.0 μM probes in the presence of various reactive sulfur species. (FIG. 5A) data of SSP1 (Ex/Em=380/458 nm). (FIG. 5B) data of SSP2 (Ex/Em=482/518 nm). The reactions were carried out for 10 min at rt in PBS buffer (50 mM, pH 7.4) with 1 mM CTAB. (1) probe alone; (2) 1 mM Cys; (3) 1 mM GSH; (4) 1 mM Hcy; (5) 100 μM GSSG; (6) 100 μM Na2S; (7) 100 μM Na2S2O3; (8) 100 μM Na2SO3; (9) 100 μM Na2SO4; (10) 25 μM Na2S2; (11) 25 μM Cys-polysulfide; (12) 25 μM S8.
The stock solution of SSP1 (1 mM) and SSP2 (1 mM) were prepared in CH3CN, respectively. The solutions of various testing species were prepared from Cysteine (Cys), GSH, Homocysteine (Hcy), Glutathione disulfide (GSSG), Na2S.9H2O, Na2S2O3, Na2SO3, Na2SO4, Na2S2 in 50 mM PBS buffer. The stock solution of Cetrimonium bromide (CTAB, 100 mM) and S8 (10 mM) were prepared in EtOH, respectively. […]
Unless otherwise noted, all the measurements were carried out for 10 min at 25° C. in 50 mM PBS buffer (pH 7.4) with 1 mM CTAB according to the following procedure. […] After mixing and then standing for 10 min at room temperature, a 4-mL portion of the reaction solution was transferred into a 1-cm quartz cell to measure fluorescence with λex=380 nm (for SSP1) or 482 nm (SSP2). In the meantime, a blank solution containing no testing species sample was prepared and measured under the same conditions for comparison. […]

Another data set deals with HeLa cells. Description: Fluorescence imaging of H2S2 in HeLa cells. It is filed as cell-based. The following applies: SSP2 50 μM 20 min. The procedure: (§1) FIGS. 6A-F Fluorescence images of H2S2 detection in H9c2 cells (a, b, c) and HeLa cells (d, e, f). Cells on glass coverslips were incubated with SSP2 (50 μM) for 20 min, then washed and subjected to different treatments. (a & d) controls (no Na2S2 was added); (b & e) treated with 50 μM Na2S2; (c & f) treated with 100 μM Na2S2.
(§2) H9c2 cells and HeLa cells were grown on glass-bottom culture dishes (Corning Inc.) in DMEM supplemented with 10% (v/v) FBS, penicillin (100 U/mL) and streptomycin (100 μg/mL) at 37° C. under a humidified atmosphere containing 5% CO2. Before use, the adherent cells were washed one time with FBS-free DMEM. For intracellular H2S2 imaging, the cells were incubated with 50 μM SSP2 in FBS-free DMEM (containing 200 μM CTAB) at 37° C. for 20 min. After removal of excess probe and washed with PBS (pH 7.4), the cells were incubated with 50 or 100 uM Na2S2 for 30 min in PBS buffer (pH 7.4, containing 500 μM CTAB). Cell imaging was carried out after washing the cells three times with PBS (pH 7.4).

Another data set has as its system H9c2 cells. Description: Fluorescence imaging of H2S2 in H9c2 cells. Format: cell-based. Conditions: SSP2 50 μM 20 min. The procedure: as §1, §2
A short description of data set [3]: Effect of pH on probe fluorescence and stability. Format: physicochemical. The following applies: probe 5.0 μM, 50 mM PBS, 1 mM CTAB. The protocol: FIGS. 2A-B Fluorescence intensity changes of (FIG. 2A) 5.0 μM SSP1 and (FIG. 2B) 5.0 μM SSP2 at different pH values in the absence (▪) or presence (●) of Na2S2 (25 μM). The reactions were carried out for 10 min at 25° C. in 50 mM PBS buffer with 1 mM CTAB. Data (A) were acquired at 458 nm and excited at 380 nm. Data (B) were acquired at 518 nm and excited at 482 nm.
Unless otherwise noted, all the measurements were carried out for 10 min at 25° C. in 50 mM PBS buffer (pH 7.4) with 1 mM CTAB according to the following procedure. In a test tube, 3.5 mL of 50 mM PBS buffer (pH 7.4) and 40 μL of the stock solution of CTAB were mixed, and then added 20 μL of the stock solution of SSP1 or SSP2. The resulting solution was mixed well, followed by addition of a requisite volume of testing species sample solution. The final volume of the reaction solution was adjusted to 4 mL with 50 mM PBS buffer (pH 7.4). After mixing and then standing for 10 min at room temperature, a 4-mL portion of the reaction solution was transferred into a 1-cm quartz cell to measure fluorescence with λex=380 nm (for SSP1) or 482 nm (SSP2). In the meantime, a blank solution containing no testing species sample was prepared and measured under the same conditions for comparison. All the measurements were repeated three times and data reported were averages.

Data set [4] in a line: Fluorescence quantum yield determination. It is filed as physicochemical. Conditions: probe alone; aqueous PBS buffer solution (pH 7.4). The protocol: The quantum yield was calculated according to the equation:^3 (Φsample=Φstandard*(Isample/Istandard)*(Astandard/Asample)*(nsample/nstandard)^2) Φ denotes the quantum yield; I denotes the area under the fluorescence band; A denotes the absorbance at the excitation wavelength; n denotes the refractive index of the solvent.
For quantum yield of SSP1, it was determined using 7-hydroxycoumarin as a standard by comparing the area under the corrected emission spectrum of the test sample with that of a solution of 7-hydroxycoumarin excited at 330 nm in sodium phosphate buffer (0.1 M; pH 7.4), which has a quantum efficiency of 0.76 according to the literature.
For quantum yield of SSP2, Quantum yield was determined using fluorescein as a standard by comparing the area under the corrected emission spectrum of the test sample with that of a solution of fluorescein excited at 490 nm in 0.1 N NaOH, which has a quantum efficiency of 0.85 according to the literature.

For data set [5] the following is noted: excited at 330 nm in sodium phosphate buffer (0.1 M; pH 7.4); cited from earlier work.
Where [6] appears, read: then Na2S2 (50 or 100 μM) for 30 min.

As for `COc1ccc2c(c1)Oc1cc(OC(=O)c3ccccc3S)ccc1C21OC(=O)c2ccccc21` (stereo not drawn) [SSP2], the fluorescence intensity increase in data set [1] was 50 folds. Moreover, in data set [2], the “fluorescence response (enhancement F/F0)” value is on record as 50˜60 folds. Also, the “cell fluorescence at 100 μM versus 50 μM Na2S2” value with HeLa cells (Na2S2 30 min) and with H9c2 cells (Na2S2 30 min) was “obviously stronger fluorescence” each time. Besides, the “cell fluorescence after Na2S2 treatment” value in the data set on HeLa cells (setting [6]) and in the data set with H9c2 cells (setting [6]) was “strong fluorescence” each time. The “cell fluorescence without Na2S2” value is “No significant fluorescent cells” in the data set with HeLa cells (washed, no Na2S2) and “No significant fluorescent cells” in the data set with H9c2 cells (washed, no Na2S2). Further, the “hydrolytic stability at basic pH” value in data set [3] is “remains stable up to pH 9”. The “fluorescence quantum yield (Φ)” value in data set [4] stood at 0.05.

With `O=C(Oc1ccc2ccc(=O)oc2c1)c1ccccc1S` [SSP1], the fluorescence intensity increase in data set [1] was determined as 25 folds. Also, the “fluorescence response (enhancement F/F0)” value in data set [2] was 26˜33 folds. Further, in data set [3], the “hydrolytic stability at basic pH” value is given as “above pH 8, SSP1 undergoes small amount of hydrolysis”. For the same compound, the “fluorescence quantum yield (Φ)” value in data set [4] came to 0.06.

Regarding `O=c1ccc2ccc(O)cc2o1` [7-hydroxycoumarin], in data set [5], the “quantum efficiency of standard” value was 0.76.
